Assay in all cases: relative viability (nuclei count vs DMSO), 5 days (fraction); higher = more cells survive
Compound in the test “Fedratinib + OSI-027”: Cc1cnc(Nc2ccc(OCCN3CCCC3)cc2)nc1Nc1cccc(S(=O)(=O)NC(C)(C)C)c1 [Fedratinib] + COc1cccc2cc(-c3nc([C@H]4CC[C@H](C(=O)O)CC4)n4ncnc(N)c34)[nH]c12 [OSI-027] (partner 0.5 µM)
The procedure, abridged: (§1)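 Lung cancer cell lines were pin-tool dosed in 1536-well plates on the day after seeding, with either a lone drug or a fixed anchor-drug dose plus five library-drug doses (not always all listed) in √10 steps. Nuclei were counted on 4× images after 5 days. Relative viability is the ratio of treated-well to vehicle-well nuclei counts, with each value a median of duplicate plates.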

Compound in the test “Fedratinib + Luminespib”: Cc1cnc(Nc2ccc(OCCN3CCCC3)cc2)nc1Nc1cccc(S(=O)(=O)NC(C)(C)C)c1 [Fedratinib] + CCNC(=O)c1noc(-c2cc(C(C)C)c(O)cc2O)c1-c1ccc(CN2CCOCC2)cc1 [Luminespib] (partner 0.01 µM)
In short, it runs like this: as §1

Compound in the test “GW-2580 + Pemetrexed”: COC1=CC=C(C=C1)COC2=C(C=C(C=C2)CC3=CN=C(N=C3N)N)OC [GW-2580] + Nc1nc2[nH]cc(CCc3ccc(C(=O)N[C@@H](CCC(=O)O)C(=O)O)cc3)c2c(=O)[nH]1 [Pemetrexed] (partner 0.2 µM)
The procedure, abridged:
as §1

Compound in the test “GW-2580 + Luminespib”: COC1=CC=C(C=C1)COC2=C(C=C(C=C2)CC3=CN=C(N=C3N)N)OC [GW-2580] + CCNC(=O)c1noc(-c2cc(C(C)C)c(O)cc2O)c1-c1ccc(CN2CCOCC2)cc1 [Luminespib] (partner 0.01 µM)
In short, it runs like this: as §1

Compound in the test “Fedratinib + Lapatinib”: Cc1cnc(Nc2ccc(OCCN3CCCC3)cc2)nc1Nc1cccc(S(=O)(=O)NC(C)(C)C)c1 [Fedratinib] + CS(=O)(=O)CCNCc1ccc(-c2ccc3ncnc(Nc4ccc(OCc5cccc(F)c5)c(Cl)c4)c3c2)o1 [Lapatinib] (partner 2 µM)
The procedure, abridged: as §1

As for HOP-62, the relative viability with Fedratinib + OSI-027 (first compound 0.1 µM) came to 0.849; with Fedratinib + OSI-027 (first compound 0.3162 µM), 0.647; in the test with Fedratinib + OSI-027 (first compound 1 µM) it was 0.719; with Fedratinib + Luminespib (first compound 0.1 µM), 0.958; with Fedratinib + Luminespib (first compound 0.3162 µM) it was 0.924; in the test with Fedratinib + Luminespib (first compound 1 µM), 0.908. Further, the relative viability came out at 0.394 with GW-2580 + Pemetrexed (first compound 0.08 µM); 0.285 with GW-2580 + Pemetrexed (first compound 0.8 µM); 0.303 in the test with GW-2580 + Pemetrexed (first compound 2.53 µM); 0.288 in the test with GW-2580 + Pemetrexed (first compound 8 µM); 1.02 with GW-2580 + Luminespib (first compound 0.08 µM); 1.04 in the test with GW-2580 + Luminespib (first compound 0.8 µM). Also, the relative viability with GW-2580 + Luminespib (first compound 2.53 µM) was determined as 0.91; with GW-2580 + Luminespib (first compound 8 µM) it was 0.917; with Fedratinib + Lapatinib (first compound 0.1 µM), 0.969; with Fedratinib + Lapatinib (first compound 0.3162 µM) it was 0.88; in the test with Fedratinib + Lapatinib (first compound 1 µM) it was 0.904.

Turning to IA-LM, the relative viability with Fedratinib + Lapatinib (first compound 0.1 µM) stood at 0.873; with Fedratinib + Lapatinib (first compound 0.3162 µM), 0.632; with Fedratinib + Lapatinib (first compound 1 µM), 0.46.

For the cell line LC-2-ad, the relative viability worked out at 0.854 with Fedratinib + OSI-027 (first compound 0.1 µM); 0.94 with Fedratinib + OSI-027 (first compound 0.3162 µM); 0.609 with Fedratinib + OSI-027 (first compound 1 µM); 1.01 in the test with Fedratinib + Luminespib (first compound 0.1 µM); 1.06 with Fedratinib + Luminespib (first compound 0.3162 µM); 0.917 with Fedratinib + Luminespib (first compound 1 µM). Moreover, the relative viability amounted to 0.268 with GW-2580 + Pemetrexed (first compound 0.08 µM); 0.285 with GW-2580 + Pemetrexed (first compound 0.8 µM); 0.253 with GW-2580 + Pemetrexed (first compound 2.53 µM); 0.278 with GW-2580 + Pemetrexed (first compound 8 µM); 1.03 with GW-2580 + Luminespib (first compound 0.08 µM); 1.07 with GW-2580 + Luminespib (first compound 0.8 µM). Besides, the relative viability with GW-2580 + Luminespib (first compound 2.53 µM) was found to be 1.12; with GW-2580 + Luminespib (first compound 8 µM), 1.02; with Fedratinib + Lapatinib (first compound 0.1 µM), 1.06; with Fedratinib + Lapatinib (first compound 0.3162 µM), 0.983; in the test with Fedratinib + Lapatinib (first compound 1 µM), 0.104.

On to LCLC-97TM1, for which the relative viability with Fedratinib + OSI-027 (first compound 0.1 µM) came to 0.715; with Fedratinib + OSI-027 (first compound 0.3162 µM), 0.504; with Fedratinib + OSI-027 (first compound 1 µM) it was 0.452; with Fedratinib + Luminespib (first compound 0.1 µM), 0.85; in the test with Fedratinib + Luminespib (first compound 0.3162 µM), 0.758; with Fedratinib + Luminespib (first compound 1 µM) it was 0.7. Moreover, the relative viability with GW-2580 + Pemetrexed (first compound 0.08 µM) was 0.158; with GW-2580 + Pemetrexed (first compound 0.8 µM), 0.143; with GW-2580 + Pemetrexed (first compound 2.53 µM), 0.179; in the test with GW-2580 + Pemetrexed (first compound 8 µM), 0.172; in the test with GW-2580 + Luminespib (first compound 0.08 µM) it was 0.771; in the test with GW-2580 + Luminespib (first compound 0.8 µM), 0.728. The relative viability with GW-2580 + Luminespib (first compound 2.53 µM) amounted to 0.799; with GW-2580 + Luminespib (first compound 8 µM), 0.694; with Fedratinib + Lapatinib (first compound 0.1 µM), 1.14; in the test with Fedratinib + Lapatinib (first compound 0.3162 µM), 0.711; in the test with Fedratinib + Lapatinib (first compound 1 µM), 0.938.

In the case of LCLC-103H, the relative viability with Fedratinib + OSI-027 (first compound 0.1 µM) is 0.415; with Fedratinib + OSI-027 (first compound 0.3162 µM), 0.454; with Fedratinib + OSI-027 (first compound 1 µM) it was 0.404; with Fedratinib + Luminespib (first compound 0.1 µM), 0.9; in the test with Fedratinib + Luminespib (first compound 0.3162 µM), 0.946; with Fedratinib + Luminespib (first compound 1 µM) it was 0.937. Further, the relative viability with GW-2580 + Pemetrexed (first compound 0.08 µM) worked out at 0.452; with GW-2580 + Pemetrexed (first compound 0.8 µM), 0.416; with GW-2580 + Pemetrexed (first compound 2.53 µM), 0.447; with GW-2580 + Pemetrexed (first compound 8 µM) it was 0.5; with GW-2580 + Luminespib (first compound 0.08 µM), 1.01; in the test with GW-2580 + Luminespib (first compound 0.8 µM), 0.895. Moreover, the figures for the relative viability with GW-2580 + Luminespib (first compound 2.53 µM) and with GW-2580 + Luminespib (first compound 8 µM) were 0.844 and 0.839, respectively.

As for LK-2, the relative viability in the test with Fedratinib + OSI-027 (first compound 0.1 µM) was 0.157; in the test with Fedratinib + OSI-027 (first compound 0.3162 µM) it was 0.184; with Fedratinib + OSI-027 (first compound 1 µM), 0.16; with Fedratinib + Luminespib (first compound 0.1 µM) it was 0.173; in the test with Fedratinib + Luminespib (first compound 0.3162 µM), 0.169; with Fedratinib + Luminespib (first compound 1 µM), 0.186. For the same cell line, the relative viability with GW-2580 + Pemetrexed (first compound 0.08 µM) turned out to be 0.287; in the test with GW-2580 + Pemetrexed (first compound 0.8 µM), 0.283; with GW-2580 + Pemetrexed (first compound 2.53 µM), 0.245; with GW-2580 + Pemetrexed (first compound 8 µM), 0.295; in the test with GW-2580 + Luminespib (first compound 0.08 µM), 0.16; with GW-2580 + Luminespib (first compound 0.8 µM), 0.173. The relative viability with GW-2580 + Luminespib (first compound 2.53 µM) was 0.238; with GW-2580 + Luminespib (first compound 8 µM), 0.175; with Fedratinib + Lapatinib (first compound 0.1 µM), 0.798; in the test with Fedratinib + Lapatinib (first compound 0.3162 µM), 0.828; in the test with Fedratinib + Lapatinib (first compound 1 µM), 0.638.

For the cell line LOU-NH91, the relative viability came to 0.669 in the test with Fedratinib + OSI-027 (first compound 0.1 µM); 0.72 in the test with Fedratinib + OSI-027 (first compound 0.3162 µM); 0.664 with Fedratinib + OSI-027 (first compound 1 µM); 0.323 in the test with Fedratinib + Luminespib (first compound 0.1 µM); 0.4 in the test with Fedratinib + Luminespib (first compound 0.3162 µM); 0.33 with Fedratinib + Luminespib (first compound 1 µM). The relative viability worked out at 0.349 with GW-2580 + Pemetrexed (first compound 0.08 µM); 0.381 with GW-2580 + Pemetrexed (first compound 0.8 µM); 0.399 in the test with GW-2580 + Pemetrexed (first compound 2.53 µM); 0.412 in the test with GW-2580 + Pemetrexed (first compound 8 µM); 0.413 with GW-2580 + Luminespib (first compound 0.08 µM); 0.34 with GW-2580 + Luminespib (first compound 0.8 µM). Further, the relative viability in the test with GW-2580 + Luminespib (first compound 2.53 µM) turned out to be 0.319; in the test with GW-2580 + Luminespib (first compound 8 µM), 0.356; with Fedratinib + Lapatinib (first compound 0.1 µM), 0.732; with Fedratinib + Lapatinib (first compound 0.3162 µM), 0.798; in the test with Fedratinib + Lapatinib (first compound 1 µM) it was 0.638.

As for LU99A, the relative viability came to 0.254 with Fedratinib + OSI-027 (first compound 0.1 µM); 0.328 with Fedratinib + OSI-027 (first compound 0.3162 µM); 0.272 with Fedratinib + OSI-027 (first compound 1 µM); 0.271 with Fedratinib + Luminespib (first compound 0.1 µM); 0.302 with Fedratinib + Luminespib (first compound 0.3162 µM); 0.216 in the test with Fedratinib + Luminespib (first compound 1 µM). In addition, the relative viability in the test with GW-2580 + Pemetrexed (first compound 0.08 µM) turned out to be 0.246; in the test with GW-2580 + Pemetrexed (first compound 0.8 µM) it was 0.176; with GW-2580 + Pemetrexed (first compound 2.53 µM) it was 0.193; in the test with GW-2580 + Pemetrexed (first compound 8 µM), 0.17; with GW-2580 + Luminespib (first compound 0.08 µM), 0.289; with GW-2580 + Luminespib (first compound 0.8 µM), 0.241. The relative viability was 0.193 with GW-2580 + Luminespib (first compound 2.53 µM); 0.273 with GW-2580 + Luminespib (first compound 8 µM); 1.08 with Fedratinib + Lapatinib (first compound 0.1 µM); 0.988 in the test with Fedratinib + Lapatinib (first compound 0.3162 µM); 0.321 with Fedratinib + Lapatinib (first compound 1 µM).

In the case of LXF-289, the relative viability was found to be 0.796 in the test with Fedratinib + OSI-027 (first compound 0.1 µM); 0.792 in the test with Fedratinib + OSI-027 (first compound 0.3162 µM); 0.791 in the test with Fedratinib + OSI-027 (first compound 1 µM); 0.741 with Fedratinib + Luminespib (first compound 0.1 µM); 0.665 with Fedratinib + Luminespib (first compound 0.3162 µM); 0.747 in the test with Fedratinib + Luminespib (first compound 1 µM). For the same cell line, the relative viability in the test with GW-2580 + Pemetrexed (first compound 0.08 µM) was 0.883; with GW-2580 + Pemetrexed (first compound 0.8 µM), 0.96; in the test with GW-2580 + Pemetrexed (first compound 2.53 µM), 0.881; with GW-2580 + Pemetrexed (first compound 8 µM) it was 0.85; in the test with GW-2580 + Luminespib (first compound 0.08 µM), 0.719; with GW-2580 + Luminespib (first compound 0.8 µM) it was 0.732. Further, the relative viability in the test with GW-2580 + Luminespib (first compound 2.53 µM) is 0.684; in the test with GW-2580 + Luminespib (first compound 8 µM) it was 0.616; in the test with Fedratinib + Lapatinib (first compound 0.1 µM), 0.894; with Fedratinib + Lapatinib (first compound 0.3162 µM), 0.883; with Fedratinib + Lapatinib (first compound 1 µM), 0.737.
